This note sets out measurements from ChEMBL document CHEMBL1126379, “Pyrrole analogues of the pyrrolidinone moiety of the potassium channel activator cromakalim as relaxants of guinea pig trachealis” (Bioorg Med Chem Lett, 1992).

A value given as a limit tells only on which side of the number the result lay.

In general, IC50 refers to the concentration at which inhibition is half-maximal. Lower therefore signals greater potency.

Experiment [1] is filed under the species Cavia porcellus. As to the kind of experiment: Relaxant activity expressed as in vitro inhibition of tone in guinea pig trachealis. Format: functional.
The species named for experiment [2] is Cavia porcellus. Put plainly: Inhibition of tone in guinea pig trachealis. Format: functional.

`CC1(C)C=C(n2ccc(C#N)c2)c2cc(C#N)ccc2O1` registered an IC50 in the experiment listed under Cavia porcellus [1] of 2400 nM. This molecule also had an Intrinsic activity in the experiment listed under Cavia porcellus [2] of 0.89. `CC1OC2=C(c3cc(C#N)ccc3OC2(C)C)n2cccc21` (stereo not drawn) yielded an IC50 in the experiment listed under Cavia porcellus [1] of 1370 nM. This molecule gave an Intrinsic activity in the experiment filed under Cavia porcellus [2] of 0.8. With `CC1(C)C=C(n2ccc([N+](=O)[O-])c2)c2cc(C#N)ccc2O1`, the midpoint of inhibition in the experiment listed under Cavia porcellus [1], the IC50, lay at 1020 nM. For the same molecule, in the experiment filed under Cavia porcellus [2], the Intrinsic activity is on record as 0.79. Take `CC(=O)c1cccn1C1=CC(C)(C)Oc2ccc(C#N)cc21`: the IC50 in the experiment filed under Cavia porcellus [1] was above 20000 nM. Also, in the experiment filed under Cavia porcellus [2], the Intrinsic activity was 0.22. In the experiment filed under Cavia porcellus [1], `CC1(C)Oc2ccc(C#N)cc2[C@@H](n2cccc2[N+](=O)[O-])[C@@H]1O` returned an IC50 of 370 nM. The molecule further gave an Intrinsic activity in the experiment listed under Cavia porcellus [2] of 0.88. `CCc1cccn1C1=CC(C)(C)Oc2ccc(C#N)cc21` came in with an IC50 in the experiment listed under Cavia porcellus [1] above 20000 nM. This molecule gave an Intrinsic activity in the experiment filed under Cavia porcellus [2] of 0.32.

In the experiment filed under Cavia porcellus [1], `CC1(C)C=C(n2cccc2)c2cc(C#N)ccc2O1` displayed a concentration for half-maximal inhibition (IC50) of 4080 nM. This molecule had an Intrinsic activity in the experiment filed under Cavia porcellus [2] of 0.78. On the same counts, the results for `CC1(C)Oc2ccc(C#N)cc2[C@H]2n3cccc3[C@@H](C(F)(F)F)O[C@]21O` are 80 nM and 0.96. On the same counts, the results for `CC(=O)N[C@@H]1c2cc(C#N)ccc2OC(C)(C)[C@H]1O` are 2900 nM and 0.78. In the experiment listed under Cavia porcellus [1], `CC1(C)Oc2ccc(C#N)cc2C2=C1OC(c1ccccc1)c1cccn12` (stereo not drawn) returned a concentration for half-maximal inhibition (IC50) above 2000 nM. The Intrinsic activity in the experiment listed under Cavia porcellus [2] was found to be 0.21. In the experiment filed under Cavia porcellus [1], `CC1(C)Oc2ccc(C#N)cc2[C@@H](n2cccc2C(=O)C(F)(F)F)[C@@H]1O` returned an IC50 above 20000 nM. This molecule came in with an Intrinsic activity in the experiment filed under Cavia porcellus [2] of 0.28. On the same counts, the results for `CC1(C)C=C(n2cccc2C(=O)C(F)(F)F)c2cc(C#N)ccc2O1` are 690 nM and 0.91. In the experiment listed under Cavia porcellus [1], `CC1(C)C=C(n2cccc2[N+](=O)[O-])c2cc(C#N)ccc2O1` yielded an IC50 of 690 nM. In the experiment listed under Cavia porcellus [2], this molecule gave an Intrinsic activity of 0.88. `CC1(C)Oc2ccc(C#N)cc2[C@@H](n2cccc2)[C@@H]1O` showed an IC50 in the experiment filed under Cavia porcellus [1] above 20000 nM. The Intrinsic activity in the experiment listed under Cavia porcellus [2] came to 0.19. For `C/C(=C\C#N)N[C@@H]1c2cc(C#N)ccc2OC(C)(C)[C@H]1O`, in that order: 1230 nM and 0.96. For `CC1(C)Oc2ccc(C#N)cc2[C@H]2n3cccc3CO[C@]21O`, in that order: 10400 nM and 0.85. As for `CC1(C)Oc2ccc(C#N)cc2[C@@H](N2CCCC2=O)[C@@H]1O` [CROMAKALIM], in the experiment filed under Cavia porcellus [2], the Intrinsic activity was determined as 0.89.
